For series [1], the system named is MDA-MB-231, OVCAR-3, SKOV-3 and MeWo cells. The series can be described thus: Wound healing assay, all cell lines examined. Format: cell-based, human.
A further series has as its system MeWo cells. The experiment in a line: Animal model of melanoma. Format: in vivo, athymic nude mice. The conditions noted are these: for Tumor growth vs. DMF control: 30 mg/kg i.p. three times a week.
Series [2] has as its system multiple cancer cell lines. The experiment in a line: Cell viability assay. Format: cell-based, human. The conditions noted are these: 48 h; for Effect on cell viability (in words): HT-29, PC-3, MDA-MB-231, MeWo, SB-2, OVCAR-3, SKOV-3.
Series [3] concerns ATX. The series can be described thus: Serum analysis, mouse ENPP2 ELISA. Format: in vivo. The conditions noted are these: at necropsy. A general note: ELISA stands for enzyme-linked immunosorbent assay.
Another series relates to VEGF. The series can be described thus: Serum analysis, circulating VEGF. The conditions noted are these: data not shown. Format: in vivo, mouse.
For the next series, the system named is Melanoma tumors. The experiment in a line: Tumor specimen analysis. Format: in vivo, athymic nude mice.
The subject of a further series is KC/CXCL1. The experiment in a line: Serum analysis, mouse Bio-Plex 23-Plex panel. Format: in vivo. The conditions noted are these: at necropsy; p<0.05 at 20 mg/kg, p<0.001 at 50-40 mg/kg vs. control.
Series [4] concerns the target T1, ATX (Homo sapiens, UniProt Q13822). The series can be described thus: Dilution/dialysis washout experiment, ATX activity by FS-3. Format: biochemical. The conditions noted are these: pre-incubated two minutes, over 1000-fold dilution over approximately one hour.
Series [5] concerns the target T1, ATX. The series can be described thus: ATX Inhibitor Screening Kit, FS-3 hydrolysis. Format: biochemical. The settings on record: for ATX inhibition (in words): dose-response mode, highest test concentration 10 μM.
The next series relates to MDA-MB-231. The experiment in a line: Wound healing assay. Format: cell-based, human. The conditions noted are these: MDA-MB-231, 5 μM.
The next series deals with OVCAR-3. The experiment in a line: Wound healing assay. Format: cell-based, human. The conditions noted are these: OVCAR-3, 5 μM.
The next series deals with MeWo. The experiment in a line: Cell viability assay. The settings on record: MeWo cells, 48 h, over the concentrations tested. Format: cell-based, human.

Data on seven molecules can be found in PMC4554797 (Bioorganic & medicinal chemistry, 2015).

“Also recorded” adds a separate entry of the source. Some results are limits rather than exact numbers.

Turning to `C=C(CCCCCCCCCCCCCCCC)S(=O)(=O)CCC[N+](C)(C)C.[Cl-]` [CVS-16, N,N,N-trimethyl-3-(octadec-1-en-2-ylsulfonyl)propan-1-aminium chloride], the “Wound healing (in words)” value in [1] (5 μM, 24 h, vs. untreated) was “inhibited wound healing”. The “Wound closure in combination with LPA” value in series [1] (CVS-16 5 μM combined with LPA (18:1, 1 μM), in most cases) was “LPA was not able to overcome the inhibition”. In the series with MeWo cells (20 mg/kg i.p. three times a week), the “Tumor volume vs. control” value is on record as “no significant difference”. Further, the “Time over which inhibition of tumor volume was sustained” value with MeWo cells (40-50 mg/kg, days after the injection of tumor cells) is given as “approximately 53 days”. Further, in the series on MeWo cells (50-40 mg/kg i.p. three times a week, day 57 (p<0.05) and day 65 (p<0.001)), the “Tumor sizes vs. control” value is “achieved statistical significance”. In addition, the “Melanoma progression in in vivo tumor model” value with MeWo cells (dose not given at this place) is on record as “significantly inhibited melanoma progression”. Also, in series [2], the “Concentration range of significant activity on cell viability” value is 0.5 to 5 µM and the “Effect on cell viability (in words)” value was “reduced cell viability to some extent”. The “Circulating ATX in serum vs. control” value in the series with ATX [3] (CVS-16 treated animals, p<0.05) is recorded as “significant reduction”. Moreover, the Deaths result (50 mg/kg group (n=5)) is given as “one mouse”. The “Clinical condition of mice” value (50 mg/kg i.p., 46th day of the study) was “severely dehydrated”. Also, the “Circulating VEGF vs. controls” value with VEGF is recorded as “did not observe any change”. In the series with Melanoma tumors (20 mg/kg), the “Specimens with mixed areas of viable and necrotic endothelial cells” value was determined as 50%; the “Specimens with only viable endothelial cells” value was 50%. Further, in the series on Melanoma tumors (40-50 mg/kg, p<0.01 vs. control, p<0.05 vs. 20 mg/kg), the “Percent of necrotic tissue within the tumor” value is “significantly more necrosis than control”. Moreover, the “Ki-67 staining of tumor sections” value in the series on Melanoma tumors (data not shown) is recorded as “no significant differences”. In addition, the “Serum KC/CXCL-1” value in the series with KC/CXCL1 is listed as “significant reduction”. The “ATX inhibition after washout” value on ATX [4] was “did not decrease the ATX inhibition”. Also, at ATX [5] (pre-incubating ATX with compound for 2 minutes), the “ATX inhibition after short pre-incubation” value is “complete inhibition”. Besides, in the series on MDA-MB-231, the “Reduction of wound healing” value is listed as “over 75%”. In the series with OVCAR-3, the “Reduction of wound healing” value is reported as “over 75%”.
With `O=C(CCN1CCN(C(=O)OCc2cc(Cl)cc(Cl)c2)CC1)c1ccc2[nH]c(=O)oc2c1` [PF-8380, reference compound], the “Tumor growth vs. DMF control” value in the series on MeWo cells is listed as “neither of these ATX inhibitors reached statistical significance; also recorded: did not impact tumor progression”. Also, the “Circulating ATX in serum vs. control” value in the series on ATX [3] (30 mg/kg) was “no significant difference”.
Take `CN(C)/N=N/c1[nH]cnc1C(N)=O` [dacarbazine]: the Cell viability reached in the series with MeWo is on record as at least 50%.
With `C=C(CCCCCCCCCCCCCCCC)S(=O)(=O)c1ccccc1` [PVS-16], the “Effect on cell viability (in words)” value is “little effect on cell viability” in series [2] and “most cell types were unaffected” in series [2] (listed as PVS-16 (21)). Also, the “ATX inhibition after washout” value at ATX [4] is reported as “no evidence of inhibiting ATX activity”. For the same molecule, the results for the “ATX inhibition (in words)” value on ATX [5] and at ATX [5] (listed as PVS-16 (21)) were “did not inhibit ATX” and “no binding effect”, respectively.
In the series with MeWo, `CC(=O)O[C@H]1C(=O)[C@@]2(C)[C@H]([C@H](OC(=O)c3ccccc3)[C@]3(O)C[C@H](OC(=O)[C@H](O)[C@@H](NC(=O)c4ccccc4)c4ccccc4)C(C)=C1C3(C)C)[C@]1(OC(C)=O)CO[C@@H]1C[C@@H]2O` [paclitaxel] gave a Cell viability reached of at least 50%.
For the molecule `O=C1S/C(=C\c2ccc(OCc3cccc(B(O)O)c3)cc2)C(=O)N1Cc1ccc(F)cc1` [HA-130, reference compound], the “Tumor growth vs. DMF control” value in the series with MeWo cells is “neither of these ATX inhibitors reached statistical significance; also recorded: did not impact tumor progression”. Also, the “Circulating ATX in serum vs. control” value in the series with ATX [3] (30 mg/kg) is “no significant difference”.
The molecule `CC[C@]1(O)C[C@H]2CN(CCc3c([nH]c4ccccc34)[C@@](C(=O)OC)(c3cc4c(cc3OC)N(C=O)[C@H]3[C@@](O)(C(=O)OC)[C@H](OC(C)=O)[C@]5(CC)C=CCN6CC[C@]43[C@@H]65)C2)C1` [vincristine] registered a Cell viability reached with MeWo of at least 50%.
